Drawing on BindingDB's records for doi:10.1016/j.bmcl.2013.05.031 (Second Military Medical University, 2013), this text covers IC50 for 33 molecules.

Chain of Acrosin (P10323 20-42 limits assumed): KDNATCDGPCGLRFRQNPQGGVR
Chain of Acrosin (P10323 43-343 limits assumed): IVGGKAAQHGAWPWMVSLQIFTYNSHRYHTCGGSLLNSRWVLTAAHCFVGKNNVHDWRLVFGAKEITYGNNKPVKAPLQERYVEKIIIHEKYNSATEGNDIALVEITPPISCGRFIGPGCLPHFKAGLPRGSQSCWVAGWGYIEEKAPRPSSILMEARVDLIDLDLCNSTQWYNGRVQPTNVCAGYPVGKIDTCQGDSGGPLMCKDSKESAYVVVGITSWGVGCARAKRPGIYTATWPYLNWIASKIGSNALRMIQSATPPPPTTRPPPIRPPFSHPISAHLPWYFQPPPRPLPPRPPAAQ

The assay addresses Acrosin (Homo sapiens, UniProt P10323). Kind of assay: Inhibition of human sperm acrosin using BAPNA as substrate after 3 hrs by spectrophotometric analysis.
Broadly, the IC50 is the concentration that inhibits the measured activity by half. Lower therefore signals inhibition by little substance. In the case of `O=Cc1cc(-c2ccc(Cl)cc2Cl)on1`, the IC50 was 390 µM. With `COc1ccc(-c2cc(C(=O)N(C)CCO)n[nH]2)cc1`, half-maximal inhibition (IC50) was put at 410 µM. The molecule `CC(O)CNC(=O)c1cc(-c2ccccc2)[nH]n1` (stereo not drawn) displayed an IC50 of 60 µM. For `O=C(NCCCO)c1cc(-c2ccccc2)[nH]n1`, the IC50 was 540 µM. In the case of `O=C(c1cc(-c2ccccc2)[nH]n1)N(CCO)CCO` it was 1700 µM; in that of `O=C(NCCO)c1cc(-c2ccccc2)n[nH]1`, 2800 µM; in that of `O=C(NCCOCCO)c1cc(-c2ccc(Br)cc2)[nH]n1`, 10000 µM.

For `CC(CO)NC(=O)c1cc(-c2ccc(Br)cc2)n[nH]1` (stereo not drawn), the IC50 worked out at 880 µM. In the case of `CC(O)CNC(=O)c1cc(-c2ccc(Br)cc2)n[nH]1` (stereo not drawn) it was 330 µM; in that of `O=C(NCCCO)c1cc(-c2ccc(Br)cc2)[nH]n1`, 380 µM; in that of `O=C(c1cc(-c2ccc(Br)cc2)n[nH]1)N(CCO)CCO`, 1520 µM. Turning to `O=C(NCCO)c1cc(-c2ccc(Br)cc2)[nH]n1`, it took 530 µM to reach half-maximal inhibition (IC50). With `O=C(NC(CO)(CO)CO)c1cc(-c2cccc([N+](=O)[O-])c2)[nH]n1` the figure was 760 µM; with `O=C(NCCOCCO)c1cc(-c2cccc([N+](=O)[O-])c2)n[nH]1`, 9100 µM. In the case of `CN(CCO)C(=O)c1cc(-c2cccc([N+](=O)[O-])c2)n[nH]1` it was 790 µM; in that of `CC(O)CNC(=O)c1cc(-c2cccc([N+](=O)[O-])c2)n[nH]1` (stereo not drawn), 1830 µM; in that of `O=C(NCCCO)c1cc(-c2cccc([N+](=O)[O-])c2)[nH]n1`, 780 µM. In the case of `O=C(c1cc(-c2cccc([N+](=O)[O-])c2)n[nH]1)N(CCO)CCO` it was 2400 µM; in that of `O=C(NCCO)c1cc(-c2cccc([N+](=O)[O-])c2)[nH]n1`, 760 µM; in that of `O=C(NC(CO)(CO)CO)c1cc(-c2ccc([N+](=O)[O-])cc2)[nH]n1`, 5220 µM. `O=C(NCCOCCO)c1cc(-c2ccc([N+](=O)[O-])cc2)n[nH]1` had an IC50 of 2070 µM. With `CC(C)(CO)NC(=O)c1cc(-c2ccc([N+](=O)[O-])cc2)n[nH]1` the figure was 1870 µM.

With `CN(CCO)C(=O)c1cc(-c2ccc([N+](=O)[O-])cc2)n[nH]1`, the IC50 was 2000 µM. In the case of `CC(O)CN(CC(C)O)C(=O)c1cc(-c2ccc([N+](=O)[O-])cc2)n[nH]1` (stereo not drawn) it was 1210 µM.

Take `CC(O)CNC(=O)c1cc(-c2ccc([N+](=O)[O-])cc2)[nH]n1` (stereo not drawn): half-maximal inhibition (IC50) required 2950 µM. `O=C(NCCCO)c1cc(-c2ccc([N+](=O)[O-])cc2)[nH]n1` showed an IC50 of 3070 µM. With `O=C(c1cc(-c2ccc([N+](=O)[O-])cc2)n[nH]1)N(CCO)CCO` the figure was 5600 µM; with `O=C(NCCO)c1cc(-c2ccc([N+](=O)[O-])cc2)n[nH]1`, 2700 µM; with `COc1ccc(-c2cc(C(=O)NCCOCCO)[nH]n2)cc1`, 6020 µM. With `COc1ccc(-c2cc(C(=O)NCCO)[nH]n2)cc1` the figure was 90 µM; with `O=C(NC(CO)(CO)CO)c1cc(-c2ccccc2)n[nH]1`, 940 µM; with `CC(CO)NC(=O)c1cc(-c2ccccc2)[nH]n1` (stereo not drawn), 3000 µM. Turning to `CC(O)CN(CC(C)O)C(=O)c1cc(-c2ccccc2)[nH]n1` (stereo not drawn), half-maximal inhibition (IC50) was put at 10 µM.
